In patent US20060252698A1, “Compounds for inhibiting cathepsin activity” (priority 2005, published 2006):
Starred links: 1 amine or outer side, 2 acyl side, 3 side chain; linkers in the order of their positions; H or OH if unused. Non-standard residues stand in square brackets, D forms with d. Residues, ends and D or L forms follow the SMILES beside them. *: point of attachment. Isobutyloxycarbonyl = CC(C)COC(=O)*; Hyp = O=C(O)[C@@H]1C[C@@H](O)CN1; X2 = CCCC(N[*:1])C(=O)C(=O)[*:2]; Phg = N[CH](C(=O)O)c1ccccc1; Tle = CC(C)(C)[C@H](N)C(=O)O; Chg = N[CH](C(=O)O)C1CCCCC1; CO = O=C([*:1])[*:2]; X1 = CC1(N*)CCCCC1; tBu = CC(C)(C)*

Columns and labels:
melanoma A375 tumors = melanoma A375 tumors implanted into the left ventricle of the heart; cited from earlier work
Human Liver Cathepsin L = target: T1, Human Liver Cathepsin L (Homo sapiens, UniProt P07711); assay: Cathepsin L inhibition assay (kinetic, Z-Phe-Arg-pNA substrate); format: biochemical; conditions: Z-Phe-Arg-pNA 120 μM, enzyme 12 nM, pH 5.5, read at 410 nm
T1 construct: purchased Calbiochem 219402
T1 sequence (P07711 114-288 limits assumed): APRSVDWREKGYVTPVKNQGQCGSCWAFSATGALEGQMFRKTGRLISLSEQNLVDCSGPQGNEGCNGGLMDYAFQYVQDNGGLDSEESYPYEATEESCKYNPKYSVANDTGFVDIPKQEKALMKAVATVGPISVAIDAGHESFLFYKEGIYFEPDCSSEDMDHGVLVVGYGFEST
T1 sequence (P07711 292-333 limits assumed): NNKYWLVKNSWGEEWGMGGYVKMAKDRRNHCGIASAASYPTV
Protocol: Cathepsin Assay Protocols:
• 1. 96-well Round or V-bottom microplates for dilutions • 2. 96-well COSTAR UV microplates for assay (COSTAR cat.#3635) • 3. Bio-Spin 6 Chromatography Columns (BIO-RAD cat.#732-6002). • 4. 12-75 mm test tubes • 5. Falcon 50 ml tubes • 6. Falcon 14 ml tubes • 7. 1.5 ml eppendorf tube • 8. ≦10 ml buffer reservoir Reagents: • 1. Enzyme: Cathepsin G, M.W.23,500, 10 μM stock. • 2. Substrate:Suc-Ala-Ala-Pro-Phe-pNA, M.W. 624.65, prep. 100 mM [62.465 mg/ml] stock. • 3. Buffer: [50 mM HEPES, 500 mM NaCl, 5 μM EDTA, pH 7.14], 5 μM DTT Instrument Settings: SpectraMax Plus • 1. Kinetic assay reading@405 nm • 2. Read interval: 30 seconds • 3. Time: 1 hour • 4. OD Min: −0.001 • 5. OD Max: 0.5 • 6. Data Mode: Absorbance • 7. e405=194.078 μM/O.D. Procedure: • 1. Add 73 μl of buffer to all wells. • 2. Add […] of buffer to (−E) controls. • 3. Add 7 μl of sample and/or DMSO for controls to appropriate wells. • 4. Prep. substrate: 100 mM (62.465 mg/ml) stock in 100% DMSO. • 5. Dilute 1:20 in buffer. 75 μl in 1.425 ml. 5 mM final. • 6. Add 20 μl of 5 mM substrate to all wells. 500 μM final. • 7. Dilute enzyme (1:50) in buffer; Add 120 μl to 5,880 μl buffer. 2×[200 nM] final. • 8. Add 100 μl of 2× [200 nM] enzyme to assigned wells, except (−E) controls. [100 nM] final. • 11. Vortex 20 seconds. Read@ 405 nM every 30 seconds for 1 hour on SpectraMax Plus • Endpoint assay reading plate@ 600 nM. Used for the detection of precipitation. Cathepsin H: Materials: • 1. 96-well Round or V-bottom microplates for dilutions • 2. 96-well COSTAR UV microplates for assay (COSTAR cat.#3635) • 3. Bio-Spin 6 Chromatography Columns (BIO-RAD cat.#732-6002) • 4. 12-75 mm test tubes • 5. Falcon 50 ml tubes • 6. Falcon 14 ml tubes • 7. 1.5 ml eppendorf tube • 8. ≧10 ml buffer reservoir Reagents: • 1. Enzyme: Cathepsin H, M.W.28,000, 9.07 μM stock. • 2. Substrate:H-Arg-pNA, M.W. 367.2, prep. 50 mM [18.36 mg/ml] stock. • 3. Buffer: [100 mM NaP04, 1 mM EDTA, 1 mM DTT, pH 6.5 Instrument Settings: SpectraMax Plus • 1. Kinetic assay reading@410 nM • 2. Read interval: 30 seconds • 3. Time: 1 hour • 4. OD Min: −0.001 • 5. OD Max: 0.05 • 6. Data Mode: Absorbance • 7. e410=188.415 μM/O.D. Km=108±5 μM Procedure: • 1. Prep. substrate: 50 mM (18.36 mg/ml) stock in 100% DMSO. • 2. Add 73 μl of buffer to all wells. • 3. Add 7 μl of sample to appropriate wells: a.) 100% DMSO for (+E) & (−E) controls. • 4. Add 100 μl of buffer to (−E) controls. • 5. Dilute substrate (1:20) in buffer; Add 140 μl to 2.66 ml buffer while vortexing. [2.5 mM] final. • 6. Add 20 μl of substrate to all wells. Vortex 3-5 seconds. [250 μM] final. • 7. Dilute enzyme (1:64.8) in buffer; Add 179 μl to 11.418 ml buffer. 2× [140 nM] final. • 8. Add 100 μl of 2× [140 nM] enzyme to assigned wells, except (−E) controls. [70 nM] final. • 9. Read@410 nM every 30 seconds for 1 hour on SpectraMax Plus Cathepsin L: Materials: • 1. 96-well Round or V-bottom microplates for dilutions • 2. 96-well COSTAR UV microplates for assay (COSTAR cat.#3635) • 3. Falcon 50 ml tubes • 4. Falcon 14 ml tubes • 5. 1.5 ml eppendorf tube • 6. 10 ml buffer reservoir Reagents: • 1. Enzyme: Calbiochem #219402: Cathepsin L, M.W.29,000, 11.62 μM stock. Lot#B45683 • 2. Substrate: Bachem #L-1242: Z-Phe-Arg-pNA, M.W. 612.09, prep. 4.8 mM [2.938 mg/ml] stock in 100% DMSO. • 3. Buffer: [100 mM NaP04, 1 mM EDTA, pH 5.5] Supplement buffer w/1 mM DTT, day of assay. Experiment #1: • Instrument settings: SpectraMax Plus microtiter plate reader (Molecular Devices, Sunnydale, Calif.) • 1. Kinetic assay reading@410 nM • 2. Read interval: 30 seconds • 3. Time: 1 hour • 4. OD Min: −0.001 • 5. OD Max: 0.05 • 6. Data Mode: Absorbance • 7. ε410=161.311 μM/O.D. Km=56±8 μM Procedure: • 1. Add 88 μl of buffer to all wells. • 2. Add 7 μl of sample or 100% DMSO to appropriate wells. • 3. Add 100 μl of buffer to (−E) controls. • 5. Add 5 μ 4.8 mM] substrate to all wells. [120 μM] final. • 6. Vortex 3-5 seconds. • 7. Dilute enzyme (1:483.87) in buffer; Add 24.8 μl to 12,000 μl buffer. 2×[24 nM] final. • 8. […]

Ki (Human Liver Cathepsin L)	Compound	distant bone metastasis to the femur and tibia (melanoma A375 tumors)
	CN(C)C(=O)[C@H](Cc1ccccc1)NC(=O)[C@H]1O[C@@H]1C(=O)NCCc1ccccn1 [CLIK-148]	reduced distant bone metastasis
530 nM	CN(C[C@@H](NC(=O)N[C@H](C(=O)N1C[C@H]2[C@@H]([C@H]1C(=O)N[C@@H](CC(F)F)C(=O)N[C@@H]1C[C@@H]1c1ccccc1)C2(C)C)C(C)(C)C)C(C)(C)C)S(C)(=O)=O	
350 nM	C=CCNC(=O)C(=O)C(CC1CC1)NC(=O)[C@@H]1[C@H]2C(c3ccccc3)[C@H]2CN1C(=O)[C@@H](NC(=O)NC1(CS(=O)(=O)C(C)(C)C)CCCCC1)C(C)(C)C (stereo partly shown)	
12 nM	CC1([C@H](NC(=O)NC2(CS(=O)(=O)C(C)(C)C)CCCCC2)C(=O)N2C[C@H]3[C@@H]([C@H]2C(=O)N[C@@H](CCC2CC2)C(=O)C(=O)NC2CC2)C3(C)C)CCCCC1	
40 nM	CCCC[C@H](NC(=O)[C@@H]1[C@@H]2[C@H](CN1C(=O)[C@@H](NC(=O)NC1([C@H]3CCN(C)S3(=O)=O)CCCCC1)C(C)(C)C)C2(C)C)C(=O)C(=O)NC1CC1	
25 nM	CC(C)(C)[C@H](NC(=O)NC1(CS(=O)(=O)C(C)(C)C)CCCCC1)C(=O)N1C[C@H]2[C@@H]([C@H]1C(=O)N[C@@H](CCC1CC1)C(=O)C(=O)NC1CC1)C2(C)C [drawing 662]	
20 nM	CCCC(NC(=O)[C@H](CC(C)C)NC(=O)C(NC(=O)OC(C)(C)C)C(C)(C)C)C(=O)C(N)=O (stereo partly shown)	
110 nM	CC1(C)[C@@H]2[C@H]3C(=O)N[C@H](C(=O)C(=O)NC4CC4)CCCCCCCCC[C@H](NC(=O)NC4(C5CCCS5(=O)=O)CCCCC4)C(=O)N3C[C@@H]21 (stereo partly shown)	
330 nM	CCCNC(=O)C(=O)[C@@H]1CCCCCCCCC[C@H](NC(=O)NC2(CS(=O)(=O)C(C)(C)C)CCCCC2)C(=O)N2C[C@H]3[C@@H]([C@H]2C(=O)N1)C3(C)C	
110 nM	CN(C[C@@H](NC(=O)N[C@H](C(=O)N1C[C@H](OC(C)(C)C)C[C@H]1C(=O)NC(CC1CCC1)C(=O)C(N)=O)C1CCCCC1)C(C)(C)C)S(C)(=O)=O (stereo partly shown)	
140 nM	C=CCNC(=O)C(=O)C(CCC)NC(=O)[C@@H]1[C@@H]2[C@H](CN1C(=O)[C@@H](NC(=O)N[C@H](CN1CCCCC1=O)C(C)(C)C)C1Cc3ccccc3C1)C2(C)C (stereo partly shown)	
170 nM	CCCC(NC(=O)[C@@H]1C[C@@H](OC(C)(C)C)CN1C(=O)[C@@H](NC(=O)NC1(C)CCCCC1)C(C)(C)C)C(=O)C(=O)NCC(=O)N[C@H](C(=O)N(C)C)c1ccccc1 (stereo partly shown) ({X1-CO}-[Tle][Hyp](tBu)[X2]G[Phg]-NMe2)	
120 nM	CC(C)C[C@@H](C(=O)NC(CC1CCC1)C(=O)C(N)=O)N1CCCCCC[C@H](NC(=O)N[C@@H](C(=O)OC(C)C)C(C)(C)C)C1=O (stereo partly shown)	
1500 nM	C=CCCC(NC(=O)[C@H]1C(C(=O)[C@@H](NC(=O)OC(C)(C)C)C2CCCCC2)C[C@@H]2C[C@@H]21)C(=O)C(=O)NCC=C (stereo partly shown)	
45 nM	C=CCNC(=O)C(=O)[C@H](CCC1CC1)NC(=O)[C@@H]1[C@@H]2[C@H](CN1C(=O)[C@@H](NC(=O)NC1(CS(=O)(=O)C(C)(C)C)CCCCC1)C(C)(C)C)C2(C)C [drawing 670]	
24 nM	CC1([C@H](NC(=O)NC2(C3CCCS3(=O)=O)CCCCC2)C(=O)N2C[C@H]3[C@@H]([C@H]2C(=O)N[C@@H](CCC2CC2)C(=O)C(=O)NC2CC2)C3(C)C)CCCCC1 (stereo partly shown)	
80 nM	CCCC[C@H](NC(=O)[C@@H]1[C@@H]2[C@H](CN1C(=O)[C@@H](NC(=O)NC1([C@H]3CCCS3(=O)=O)CCCCC1)C(C)(C)C)C2(C)C)C(=O)C(=O)NC1CC1	
220 nM	CC(C)(C)OC(=O)N[C@H](C(=O)N1C[C@H]2[C@@H]([C@H]1C(=O)NC(CC1CC1)C(=O)C(N)=O)C(C)(C)C2(C)C)C1CCCCC1 (stereo partly shown)	
11 nM	CCCC[C@H](NC(=O)[C@@H]1[C@@H]2[C@H](CN1C(=O)[C@@H](NC(=O)NC1(CS(=O)(=O)C(C)(C)C)CCCCC1)C1(C)CCCCC1)C2(C)C)C(=O)C(=O)NC1CC1	
120 nM	CC1C[C@H]2CN(C(=O)[C@@H](NC(=O)OC(C)(C)C)C3CCCCC3)[C@H](C(=O)NC(CC3CC3)C(=O)C(=O)NCC(=O)N[C@H](C(=O)N(C)C)c3ccccc3)[C@H]2C1 (stereo partly shown)	
7 nM	CCCC[C@H](NC(=O)[C@@H]1[C@@H]2[C@H](CN1C(=O)[C@@H](NC(=O)NC1(CS(=O)(=O)C(C)(C)C)CCCCC1)C(C)(C)C)C2(C)C)C(=O)C(=O)NC1CC1 [drawing 652]	
20 nM	C=CCNC(=O)C(=O)C(CC1CC1)NC(=O)[C@@H]1[C@@H]2[C@H](CN1C(=O)[C@@H](NC(=O)N[C@H](CN1C(=O)CC(C)(C)CC1=O)C(C)(C)C)C(C)(C)O)C2(C)C (stereo partly shown)	
230 nM	C=CCNC(=O)C(=O)[C@@H]1CCCCCCCCC[C@H](NC(=O)NC2(CS(=O)(=O)C(C)(C)CC)CCCCC2)C(=O)N2C[C@H]3[C@@H]([C@H]2C(=O)N1)C3(C)C	
20 nM	CCCC[C@H](NC(=O)[C@@H]1[C@@H]2[C@H](CN1C(=O)[C@@H](NC(=O)NC1([C@H]3CCCS3(=O)=O)CCCCC1)C1(C)CCCCC1)C2(C)C)C(=O)C(=O)NC1CC1	
370 nM	C=CCNC(=O)C(=O)[C@@H]1CCCCCCCCC[C@H](NC(=O)N[C@H](CN(C)S(=O)(=O)N(C)C)C(C)(C)C)C(=O)N2C[C@H]3[C@@H]([C@H]2C(=O)N1)C3(C)C	
1.9 nM	CC(=O)N[C@@H](CC(C)C)C(=O)N[C@@H](CC(C)C)C(=O)N[C@H](C=O)CCCNC(=N)N [drawing 688]	
38 nM	COc1ccc2c(O[C@@H]3C[C@H]4C(=O)N[C@]5(C(=O)O)CC5/C=C\CCCCC[C@H](NC(=O)OC5CCCC5)C(=O)N4C3)cc(-c3csc(NC(C)C)n3)nc2c1 (stereo partly shown)	
2 nM	CCCC(NC(=O)C(CC(C)C)NC(=O)C(NC(=O)OCC(C)C)C1CCCCC1)C(=O)C(=O)NCC(=O)NC(C(N)=O)c1ccccc1 (stereo not shown) (Isobutyloxycarbonyl-[Chg]L[X2]G[Phg]-NH2; configuration not given here)	
